Source: ChEMBL document CHEMBL1129595, “Potent 6-desfluoro-8-methylquinolones as new lead compounds in antibacterial chemotherapy” (J Med Chem, 1996)
In brackets after ≈: the same amount, converted by molar mass.

Key:
Klebsiella pneumoniae = assay: In vitro antibacterial activity against Klebsiella pneumoniae ATCC 10031; type: functional
Enterococcus faecalis [1] = assay: In vitro antibacterial activity against Enterococcus faecalis LEP Br; type: functional
Streptococcus pyogenes = assay: In vitro antibacterial activity against Streptococcus pyogenes OMNFI BI; type: functional
Staphylococcus aureus [2] = assay: In vitro antibacterial activity against Staphylococcus aureus ATCC 29213; type: functional
Enterococcus faecalis [3] = assay: In vitro antibacterial activity against Enterococcus faecalis UCMC 39690; type: functional
Proteus mirabilis = assay: In vitro antibacterial activity against Proteus mirabilis OBT 505; type: functional
Staphylococcus aureus [4] = assay: In vitro antibacterial activity against Staphylococcus aureus M-R POMM 6214; type: functional
[5] = Mean MIC against gram positive; type: functional
DNA gyrase = DNA gyrase (Escherichia coli, UniProt P0AES4+P0AES6); assay: Inhibitory effect against Escherichia coli Gyrase in Supercoiling assay; type: protein-complex assay
Pseudomonas aeruginosa [6] = assay: In vitro antibacterial activity against Pseudomonas aeruginosa OBT 307; type: functional
Staphylococcus aureus [7] = assay: In vitro antibacterial activity against Staphylococcus aureus CPX-R OBT 687; type: functional
[8] = Mean MIC against gram negative; type: functional
Pseudomonas aeruginosa [9] = assay: In vitro antibacterial activity against Pseudomonas aeruginosa […] 9027; type: functional
Proteus vulgaris = assay: In vitro antibacterial activity against Proteus vulgaris CNUR 6; type: functional
Escherichia coli [10] = assay: In vitro antibacterial activity against Escherichia coli ATCC 25922; type: functional
Enterobacter cloacae = assay: In vitro antibacterial activity against Enterobacter cloacae OMNFI 174; type: functional
Escherichia coli [11] = assay: In vitro antibacterial activity against Escherichia coliCPX-R OBT 431; type: functional
Streptococcus pneumoniae = assay: In vitro antibacterial activity against Streptococcus pneumoniae I 0.43; type: functional
Escherichia coli [12] = assay: In vitro antibacterial activity against Escherichia coli 120; type: functional
Staphylococcus aureus [13] = assay: In vitro antibacterial activity against Staphylococcus aureus MPR 5; type: functional
Haemophilus influenzae = assay: In vitro antibacterial activity against Haemophilus influenzae; type: functional
[14] = Mean MIC Against gram positive; type: functional

Row | Structure (SMILES) | MIC (Klebsiella pneumoniae) [µg/mL] | MIC (Enterococcus faecalis [1]) [µg/mL] | MIC (Streptococcus pyogenes) [µg/mL] | MIC (Staphylococcus aureus [2]) [µg/mL] | MIC (Enterococcus faecalis [3]) [µg/mL] | MIC (Proteus mirabilis) [µg/mL] | MIC (Staphylococcus aureus [4]) [µg/mL] | IC50 (DNA gyrase) [µM] | MIC (Pseudomonas aeruginosa [6]) [µg/mL] | MIC (Staphylococcus aureus [7]) [µg/mL] | MIC [8] [µg/mL] | MIC (Pseudomonas aeruginosa [9]) [µg/mL] | MIC (Proteus vulgaris) [µg/mL] | MIC (Escherichia coli [10]) [µg/mL] | MIC (Enterobacter cloacae) [µg/mL] | MIC (Escherichia coli [11]) [µg/mL] | MIC (Streptococcus pneumoniae) [µg/mL] | MIC (Escherichia coli [12]) [µg/mL] | MIC (Staphylococcus aureus [13]) [µg/mL] | MIC (Haemophilus influenzae) [µg/mL] | further results
1 | Cc1c(N2CCc3ccccc3C2)c(N)cc2c(=O)c(C(=O)O)cn(C3CC3)c12 | 0.03 (≈ 0.077 µM) | 0.25 (≈ 0.642 µM) | < 0.016 | < 0.016 | 0.125 (≈ 0.321 µM) | > 16 | < 0.016 | 9.24 | > 16 | 2 (≈ 5.14 µM) | 0.998 (≈ 2.56 µM) | 8 (≈ 20.5 µM) | 8 (≈ 20.5 µM) | 0.125 (≈ 0.321 µM) | 0.5 (≈ 1.28 µM) | > 16 | 0.25 (≈ 0.642 µM) | 0.125 (≈ 0.321 µM) | < 0.016 | < 0.016 | MIC [5]: 0.075 µg/mL (≈ 0.193 µM)
2 | Cc1c(N2CCCCC2)c(F)cc2c(=O)c(C(=O)O)cn(C3CC3)c12 | < 0.016 | 0.03 (≈ 0.0871 µM) | < 0.016 | < 0.016 | < 0.016 | 1 (≈ 2.9 µM) | < 0.016 | 6.97 | 4 (≈ 11.6 µM) | 0.125 (≈ 0.363 µM) | 0.29 (≈ 0.842 µM) | 1 (≈ 2.9 µM) | 2 (≈ 5.81 µM) | < 0.016 | 0.5 (≈ 1.45 µM) | 16 (≈ 46.5 µM) | < 0.016 | < 0.016 | < 0.016 | < 0.016 | MIC [5]: 0.022 µg/mL (≈ 0.0639 µM)
3 | Cc1c(N2CCc3ccccc3C2)c(F)cc2c(=O)c(C(=O)O)cn(C3CC3)c12 | 0.06 (≈ 0.153 µM) | 0.5 (≈ 1.27 µM) | 0.03 (≈ 0.0764 µM) | < 0.016 | 0.06 (≈ 0.153 µM) | 4 (≈ 10.2 µM) | < 0.016 | 7.64 | 16 (≈ 40.8 µM) | 1 (≈ 2.55 µM) | 0.869 (≈ 2.21 µM) | 4 (≈ 10.2 µM) | 4 (≈ 10.2 µM) | 0.125 (≈ 0.319 µM) | 0.5 (≈ 1.27 µM) | > 16 | 0.25 (≈ 0.637 µM) | 0.25 (≈ 0.637 µM) | < 0.016 | < 0.016 | MIC [5]: 0.074 µg/mL (≈ 0.189 µM)
4 | Cc1c(N2CCCCC2)ccc2c(=O)c(C(=O)O)cn(C3CC3)c12 | < 0.016 | 1 (≈ 3.06 µM) | 0.03 (≈ 0.0919 µM) | < 0.016 | 0.03 (≈ 0.0919 µM) | 4 (≈ 12.3 µM) | < 0.016 | 10.1 | 16 (≈ 49 µM) | 1 (≈ 3.06 µM) | 0.534 (≈ 1.64 µM) | 4 (≈ 12.3 µM) | 8 (≈ 24.5 µM) | 0.03 (≈ 0.0919 µM) | 0.25 (≈ 0.766 µM) | > 16 | < 0.016 | 0.03 (≈ 0.0919 µM) | < 0.016 | < 0.016 | MIC [5]: 0.052 µg/mL (≈ 0.159 µM)
5 | O=C(O)c1cn(C2CC2)c2cc(N3CCc4ccccc4C3)c(F)cc2c1=O | 0.125 (≈ 0.33 µM) | 0.25 (≈ 0.661 µM) | 2 (≈ 5.29 µM) | < 0.016 | 0.06 (≈ 0.159 µM) | 4 (≈ 10.6 µM) | 0.25 (≈ 0.661 µM) | 28.5 | 8 (≈ 21.1 µM) | 8 (≈ 21.1 µM) | 1.15 (≈ 3.04 µM) | 4 (≈ 10.6 µM) | > 16 | 0.25 (≈ 0.661 µM) | 1 (≈ 2.64 µM) | > 16 | 0.25 (≈ 0.661 µM) | 0.25 (≈ 0.661 µM) | < 0.016 | < 0.016 | MIC [5]: 0.21 µg/mL (≈ 0.555 µM)
6 | Cc1c(N2CCc3ccccc3C2)ccc2c(=O)c(C(=O)O)cn(C3CC3)c12 | 0.125 (≈ 0.334 µM) | 1 (≈ 2.67 µM) | 0.25 (≈ 0.668 µM) | < 0.016 | 0.5 (≈ 1.34 µM) | > 16 | 0.25 (≈ 0.668 µM) | 20.8 | > 16 | 2 (≈ 5.34 µM) | 1.85 (≈ 4.94 µM) | > 16 | > 16 | 1 (≈ 2.67 µM) | 0.03 (≈ 0.0801 µM) | > 16 | 1 (≈ 2.67 µM) | 2 (≈ 5.34 µM) | 0.03 (≈ 0.0801 µM) | 0.06 (≈ 0.16 µM) | MIC [5]: 0.272 µg/mL (≈ 0.726 µM)
7 | Cc1c(N2CCCCC2)c(N)cc2c(=O)c(C(=O)O)cn(C3CC3)c12 | < 0.016 | 0.5 (≈ 1.46 µM) | 0.5 (≈ 1.46 µM) | 0.05 (≈ 0.146 µM) | 1 (≈ 2.93 µM) | 4 (≈ 11.7 µM) | 0.125 (≈ 0.366 µM) | 9.37 | 16 (≈ 46.9 µM) | 8 (≈ 23.4 µM) | 1 (≈ 2.94 µM) | 4 (≈ 11.7 µM) | > 16 | 0.125 (≈ 0.366 µM) | 1 (≈ 2.93 µM) | > 16 | 2 (≈ 5.86 µM) | 0.5 (≈ 1.46 µM) | < 0.016 | < 0.016 | MIC [5]: 0.376 µg/mL (≈ 1.1 µM)
8 | O=C(O)c1cn(C2CC2)c2cc(N3CCCCC3)c(F)cc2c1=O | < 0.016 | 0.5 (≈ 1.51 µM) | 8 (≈ 24.2 µM) | 0.03 (≈ 0.0908 µM) | 0.25 (≈ 0.757 µM) | 2 (≈ 6.05 µM) | 0.25 (≈ 0.757 µM) | 97.2 | 4 (≈ 12.1 µM) | > 16 | 0.71 (≈ 2.15 µM) | 4 (≈ 12.1 µM) | > 16 | 0.125 (≈ 0.378 µM) | 0.5 (≈ 1.51 µM) | > 16 | 1 (≈ 3.03 µM) | 0.25 (≈ 0.757 µM) | 0.03 (≈ 0.0908 µM) | < 0.016 | MIC [14]: 0.495 µg/mL (≈ 1.5 µM)
9 | Cc1c(N2CCN(C)CC2)c(N)cc2c(=O)c(C(=O)O)cn(C3CC3)c12 | 0.03 (≈ 0.0842 µM) | 2 (≈ 5.61 µM) | 4 (≈ 11.2 µM) | 1 (≈ 2.81 µM) | 4 (≈ 11.2 µM) | 1 (≈ 2.81 µM) | 4 (≈ 11.2 µM) | 10.7 | 8 (≈ 22.4 µM) | > 16 | 0.459 (≈ 1.29 µM) | 2 (≈ 5.61 µM) | 8 (≈ 22.4 µM) | 0.03 (≈ 0.0842 µM) | 0.125 (≈ 0.351 µM) | > 16 | 8 (≈ 22.4 µM) | 0.06 (≈ 0.168 µM) | 1 (≈ 2.81 µM) | 0.03 (≈ 0.0842 µM) | MIC [5]: 3.36 µg/mL (≈ 9.44 µM)
10 | CN1CCN(c2cc3c(cc2F)c(=O)c(C(=O)O)cn3C2CC2)CC1 | < 0.016 | 0.5 (≈ 1.45 µM) | 2 (≈ 5.79 µM) | 0.125 (≈ 0.362 µM) | 0.25 (≈ 0.724 µM) | 0.25 (≈ 0.724 µM) | 1 (≈ 2.9 µM) | 4.34 | 0.25 (≈ 0.724 µM) | 16 (≈ 46.3 µM) | 0.11 (≈ 0.318 µM) | 0.5 (≈ 1.45 µM) | 0.5 (≈ 1.45 µM) | < 0.016 | < 0.016 | > 16 | 0.5 (≈ 1.45 µM) | < 0.016 | 0.125 (≈ 0.362 µM) | < 0.016 | MIC [5]: 0.648 µg/mL (≈ 1.88 µM)
